# Reference: publication PMC7515829, “HKDC1 C-terminal based peptides inhibit extranodal natural killer/T-cell lymphoma by modulation of mitochondrial function and EBV suppression” (Leukemia, 2020)
# How the values were obtained:
# [1] = tested on: SNK6 cells; assay: Colony formation in soft agar; type: cell-based, human; details: 0.5 µM peptide, 6 h, vs CTL, n = 5 (Fig. 5e)
# Experimental: Colony formation in soft agar. This assay is a method for evaluating the ability of individual cell lines to grow in an anchorage-independent manner. Cells were resuspended in DMEM containing 5% FBS with 0.3% agarose and layered on top of 0.5% agarose in DMEM on 60-mm plates. 1000 cells were seeded in 60mm soft agar dishes for 30 days. The dishes were examined twice per week, and colonies that grew beyond […] in diameter were scored as positive. Each experiment was done in quadruplicate (8).
# [2] = tested on: SNK6 xenograft; assay: SNK6 xenograft tumor volume; type: in vivo, mouse; details: nude mice, n = 5; for tumor volumes on day 36: intratumoral 50 µM peptide every 2 days from day ~18, day 36, vs CTL; for tumor volumes on day 48: intratumoral 50 µM peptide every 2 days from day ~18, day 48, vs CTL
# Experimental: To measure malignant SNK6 xenograft growth, 100 µl of 1 × 10^5 SNK6 cells in PBS were mixed with 100 µl growth factor-reduced basement membrane matrix (Matrigel™, BD Biosciences) resulting in 200 µl of solution that was injected subcutaneously along the mouse flank at each intended tumor site. Tumor size was measured using a digital caliper and volume was calculated, and mice were randomly divided into four groups (n = 9 per group) when the tumor volume reached 50–100 mm^3 on day ~18 after tumor inoculation and given treatment as follows: Group 1 (control (CTL)) was intratumorally injected with HBSS buffer (5.33 mM KCl, 0.44 mM KH2PO4, 138 mM NaCl, 4 mM NaHCO3, 0.3 mM Na2HPO4, and 5.6 mM glucose, pH 7.3) containing 0.05% DMSO; Group 2 (Tf-D-HKN15) received HBSS buffer containing 0.05% DMSO with 50 µM Tf-D-HKN15 peptides; Group 3 (Tf-D-HKC15) received HBSS buffer containing 0.05% DMSO with 50 µM Tf-D-HKC15 peptides; Group 4 (Tf-D-HKC8) received HBSS buffer containing 0.05% DMSO with 50 µM Tf-D-HKC8 peptides. The xenografts were injected (two points, 20 µl per tumor) every 2 days. Beginning on the day of inoculation, mouse weight and tumor volume were monitored every 2 days. Mice were monitored for changes in body weight and sacrificed when values fell below 20% of their initial weight; the survival curve was calculated and the final tumor tissues were isolated for biomedical analysis.
# To measure the malignant SNK6 xenograft growth, the 100µl of 1x10^5 SNK6 cells in PBS were mixed with 100µl growth factor-reduced basement membrane matrix (Matrigel™, BD Biosciences) resulting in 200µl of solution that was injected subcutaneously along the mouse flank at each intended tumor site. Tumor size was measured using a digital caliper and volume was calculated, and mice were randomly divided into 4 groups (n=9 per group) when the tumor volume reached 50-100 mm^3 on day ~18 after tumor inoculation: Group 1 (CTL) was intratumorally injected with HBSS buffer (5.33 mM KCl, 0.44 mM KH2PO4, 138 mM NaCl, 4 mM NaHCO3, 0.3 mM Na2HPO4, and 5.6 mM glucose, pH 7.3) containing 0.05% DMSO; Group 2 (Tf-D-HKN15) received HBSS buffer containing 0.05% DMSO with 50 µM Tf-D-HKN15 peptides; Group 3 (Tf-D-HKC15) received HBSS buffer containing 0.05% DMSO with 50 µM Tf-D-HKC15 peptides; Group 4 (Tf-D-HKC8) received HBSS buffer containing 0.05% DMSO with 50 µM Tf-D-HKC8 peptides. The xenografts were injected (two points, 20 µL per tumor) every two days. Beginning on the day of inoculation, mouse weight and tumor volume were monitored every 2 days. Mice were monitored for changes in body weight and sacrificed when values fell below 20% of their initial weight, the survival curve was calculated and the final tumor tissues were isolated for biomedical analysis.
# [3] = tested on: EBV; assay: EBV viral genomes/cell by qPCR in SNK6 cells; type: cell-based; details: 0.5 µM peptide, 6 h, vs CTL, n = 4 (Fig. 3i)
# Experimental: Detection of EBV copy number. Genomic DNA was extracted from treated SNK-6 cells or SNK-6 tumor tissue in mice using a QIAamp DNA Mini Kit (Qiagen). The EBV DNA copy number was measured through qPCR using 50ng of total DNA with EBV BMRF1 primers (see Table 1), and the results were normalized using cellular β-actin (primers see Table 1) as an internal control (13, 14). The Namalwa cell line, which contains 2 EBV viral genome copies, was used as a standard to prepare calibration curves for both EBV BMRF1 and β-actin genes, and the EBV viral load was presented as the number of viral genomes per cell (15, 16).
# [4] = tested on: SNK6 cells; assay: Cell migration assay; type: cell-based, human; details: 0.5 µM peptide, 6 h, vs CTL, n = 5 (Fig. 5b)
# Experimental: (§1) Migration and invasion assays. Cell migration and invasion assays were performed in 24-well chemotaxis plates with an 8μm polycarbonate filter membrane. The plates were coated with 20μg Matrigel for invasion assays and uncoated for migration assays. Invasion and migration were expressed as the number of migrated cells bound per microscopic field and averaged from at least four fields per assay in at least 4 experiments (18, 19).
# [5] = tested on: SNK6 cells; assay: ROS formation (CM-H2DCFDA); type: cell-based, human; details: 0.5 µM peptide, 6 h, compared with CTL group, n = 5 (Fig. 3a)
# Experimental: Measurement of ROS generation. Treated cells were seeded in a 24-well plate and incubated with 10μM CM-H2DCFDA (Invitrogen) for 45 min at 37°C, and then the intracellular formation of reactive oxygen species (ROS) was measured at excitation/emission wavelengths of 485/530nm using a FLx800 microplate fluorescence reader (Bio-Tek). The data was normalized as arbitrary units (8, 11).
# [6] = tested on: BZLF1; assay: mRNA level by qPCR in SNK6 cells; type: cell-based, EBV; details: 0.5 µM peptide, 6 h, vs CTL, n = 4 (Fig. 3f)
# Experimental: (§2) Fig. 3 Peptide for the last eight aa of HKDC1 at the C-terminal (Tf-D-HKC8) inhibits EBV replication and P-gp expression through ROS generation and DNA damage in ENKTL cells. SNK6 cells were treated with control (CTL), Tf-D-HKN15, Tf-D-HKC15, or Tf-D-HKC8 peptide (0.5 µM) for 6 h and the cells were used for biomedical analysis. a ROS formation, n = 5. b 3-nitrotyrosine (3-NT) formation, n = 5. c 8-OHdG formation, n = 5. d Quantitation of γH2AX formation, n = 5. e Representative western blotting bands for d. f mRNA level by qPCR for BZLF1, BMRF1, and ABCB1, n = 4. g Protein quantitation for Zta, EA-D, and P-gp, n = 5. h Representative pictures of western blots for g. i EBV viral genomes/cell by qPCR, n = 4. *P < 0.05, vs CTL group; ^¶P < 0.05, vs Tf-D-HKC15 group. Results were expressed as mean ± SEM.
# [7] = tested on: BMRF1; assay: mRNA level by qPCR in SNK6 cells; type: cell-based, EBV; details: 0.5 µM peptide, 6 h, vs CTL, n = 4 (Fig. 3f)
# Experimental: as §2
# [8] = tested on: SNK6 cells; assay: Peptide delivery efficiency, 125I-labeled uptake assay; type: in vitro ADME, human; details: 125I label on tyrosine, 0.5 µM peptide, 6-h incubation, media and cells counted by liquid scintillation counter, mean, n = 4 (Fig S1)
# From the text: We investigated the potential role of HKDC1-based peptides in ENKTL cells that were isolated from the MNCs of ENKTL patients or SNK6 cell line. Three different kinds of HKDC1-based targeting peptides, including the last 15 aa at either the N-terminal (HKN15) or C-terminal (HKC15), or the last eight aa at the C-terminal (HKC8) were selected; four different kinds of cell-penetrating sequences were employed to deliver the HKDC1-based peptides, including Antp (a 16 penetrating residue long sequence from the Drosophila antennapedia-homeodomain), penetration-accelerating segment, TAT (HIV-1 TAT sequence), and Tf (the Tf receptor (TfR) internalization sequence) sequences. All of the aa with the D-configuration (marked as D) were synthesized as retro-inverso peptides. […] We then evaluated the toxic effect of two peptides (including Tf-D-HKC15 and Tf-D-HKC8) on different kinds of primary and cancer cell lines (see details in Table 2). […] We also evaluated the peptide delivery efficiency using ^125I-labeled uptake assay for both Tf-D-HKC8 and Tf-D-HKC15 peptides. […]
# Figure S1. […] 0.5µM each of peptide was incubated with SNK6 cells for 6 hours, then both culture media and SNK6 cells were harvested for radioactivity assay using Liquid Scintillation Counter. n=4. *, P<0.05, vs Intracellular group. Results were expressed as mean ± SEM.
# [9] = tested on: SNK6 xenograft; assay: Superoxide anion release from tumor tissue; type: in vivo, mouse; details: nude mice, intratumoral 50 µM peptide every 2 days from day ~18, tissue day 50, chemiluminescence vs CTL, n = 5
# Experimental: In vivo superoxide release analysis. Superoxide anion (O2^.-) release from tumor tissues was determined using a luminol-EDTA-Fe enhanced chemiluminescence (CL) system supplemented with DMSO-TBAC (Dimethyl sulfoxide-tetrabutyl-ammonium chloride) solution for extraction of released O2^.- from tissues, as described previously (11). Superoxide levels were calculated from the standard curve generated by the xanthine/xanthine oxidase reaction (8).
# [10] = tested on: SNK6 cells; assay: Cell invasion assay; type: cell-based, human; details: 0.5 µM peptide, 6 h, Matrigel, vs CTL, n = 5 (Fig. 5c)
# Experimental: as §1
Substance,colony formation [1] [%],tumor volumes on day 36 [2] [%],tumor volumes on day 48 [2] [%],EBV genome copies [3] [%],cell migration [4] [%],ROS formation [5] [%],BZLF1 mRNA [6] [%],BMRF1 mRNA [7] [%],peptide delivered into SNK6 cells (delivery efficiency) [8] [%],superoxide anion release from tumor [9] [%],cell invasion [10] [%]
HAIYPRH-LQQAQKEN [Tf-D-HKC8],28,36,32,21,23,229,21,31,53.4,297,29
HAIYPRH-ITAVAKRLQQAQKEN [Tf-D-HKC15],64,63,70,62,66,165,47,65,35.6,203,61
